Tested on: tobacco budworm (Heliothis virescens [Fabricius])
Experiment: surface-treated diet test, insecticidal activity against tobacco budworm
Format: in vivo
Details: 0.25 millimoles of candidate insecticide on the surface of the diet, second instar larvae, five-day exposure; for Percent Mortality: compared to total number of insects infested; for Percent Growth Inhibition: inhibition of insect weight relative to untreated controls
Procedure, shortened: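 Wheat germ artificial diet surface-treated with compound from 50 mM DMSO stock diluted 1:7 in 1:1 water/acetone (0.25 millimolar on diet), or lower-rate dilutions; DMSO-only controls. One second-instar larva per well, 25° C, 60% RH, 14 h light, five days; percent weight inhibition versus untreated and percent mortality scored.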

SMILES	Percent Mortality [%]	Percent Growth Inhibition [%]
[O-][N+]1(Cc2ccc(Oc3ncccn3)cc2)CCC(O)(C(c2ccc(OC(F)(F)C(F)C(F)(F)F)cc2)c2ccc(OC(F)(F)C(F)C(F)(F)F)cc2)CC1 (centres unmarked) [Compound 409]	100	100
NC(=O)CON=Cc1ccc(C[N+]2([O-])CCC(O)(C(c3ccc(OC(F)(F)F)cc3)c3ccc(OC(F)(F)F)cc3)CC2)cc1 (centres unmarked) [Compound 410]	100	100
[O-][N+]1(Cc2ccc(-c3ncccc3Cl)cc2)CCC(O)(C(c2ccc(OC(F)(F)F)cc2)c2ccc(OC(F)(F)F)cc2)CC1 (centres unmarked) [Compound 411]	100	100
[O-][N+]1(Cc2ccc(Oc3ccc(Cl)nn3)cc2)CCC(O)(C(c2ccc(OC(F)(F)F)cc2)c2ccc(OC(F)(F)F)cc2)CC1 (centres unmarked) [Compound 412]	100	100
Cc1ccc(Oc2ccc(C[N+]3([O-])CCC(O)(C(c4ccc(OC(F)(F)F)cc4)c4ccc(OC(F)(F)F)cc4)CC3)cc2)nn1 (centres unmarked) [Compound 413]	100	100
CCn1nnc(-c2ccc(CN3CCC(O)(C(O)(c4ccc(OC(F)(F)F)cc4)c4ccc(OC(F)(F)F)cc4)CC3)cc2)n1 [Compound 416]	100	100
CCON=Cc1ccc(CN2CCC(O)(C(O)(c3ccc(OC(F)(F)F)cc3)c3ccc(OC(F)(F)F)cc3)CC2)cc1 [Compound 417]	100	100
O=Cc1ccc(CN2CCC(O)(C(O)(c3ccc(OC(F)(F)F)cc3)c3ccc(OC(F)(F)F)cc3)CC2)cc1 [Compound 418]	0	83
CC(C)OC(=O)Nc1ccc(CN2CCC(O)(C(O)(c3ccc(OC(F)(F)F)cc3)c3ccc(OC(F)(F)F)cc3)CC2)cc1 [Compound 419]	100	100
[O-][N+]1(Cc2ccc(Oc3ccccn3)cc2)CCC(O)(C(O)(c2ccc(OC(F)(F)F)cc2)c2ccc(OC(F)(F)F)cc2)CC1 (centres unmarked) [Compound 421]	100	100
[O-][N+]1(Cc2ccc(Oc3ncccn3)cc2)CCC(O)(C(O)(c2ccc(OC(F)(F)F)cc2)c2ccc(OC(F)(F)F)cc2)CC1 (centres unmarked) [Compound 422]	100	100
CC(C)OC(=O)Nc1ccc(C[N+]2([O-])CCC(O)(C(O)(c3ccc(OC(F)(F)F)cc3)c3ccc(OC(F)(F)F)cc3)CC2)cc1 (centres unmarked) [Compound 423]	100	100
CCON=Cc1ccc(C[N+]2([O-])CCC(O)(C(O)(c3ccc(OC(F)(F)F)cc3)c3ccc(OC(F)(F)F)cc3)CC2)cc1 (centres unmarked) [Compound 424]	100	100
[O-][N+]1(Cc2ccc(Oc3ccc(Cl)nn3)cc2)CCC(O)(C(O)(c2ccc(OC(F)(F)F)cc2)c2ccc(OC(F)(F)F)cc2)CC1 (centres unmarked) [Compound 425]	100	100
CCn1nnc(-c2ccc(C[N+]3([O-])CCC(O)(C(O)(c4ccc(OC(F)(F)F)cc4)c4ccc(OC(F)(F)F)cc4)CC3)cc2)n1 (centres unmarked) [Compound 426]	100	100
[O-][N+]1(Cc2ccc(Oc3ccccn3)cc2)CCC(O)(C(F)(c2ccc(OC(F)(F)F)cc2)c2ccc(OC(F)(F)F)cc2)CC1 (centres unmarked) [Compound 430]	100	100

SMILES	Percent Mortality [%]	Percent Growth Inhibition [%]
[O-][N+]1(Cc2ccc(Oc3ccccn3)cc2)CCC2(CC1)OC2(c1ccc(OC(F)(F)F)cc1)c1ccc(OC(F)(F)F)cc1 (centres unmarked) [Compound 431]	100	100
OC1(C(c2ccc(OC(F)(F)F)cc2)c2ccc(Cl)cc2Cl)CCN(Cc2ccc(Oc3ccccn3)cc2)CC1 (centres unmarked) [Compound 433]	100	100
OC1(C(c2ccccc2F)c2ccccc2F)CCN(Cc2ccc(Oc3ncccn3)cc2)CC1 [Compound 434]	0	56
Cc1cc(C(c2ccc(OC(F)(F)F)cc2)C2(O)CCN(Cc3ccc(Oc4ccccn4)cc3)CC2)ccc1Cl (centres unmarked) [Compound 435]	100	100
Cc1cc(Cl)ccc1C(c1ccc(OC(F)(F)F)cc1)C1(O)CCN(Cc2ccc(Oc3ccccn3)cc2)CC1 (centres unmarked) [Compound 436]	100	100
OC1(C(c2ccc(OC(F)(F)F)cc2)c2ccccc2Cl)CCN(Cc2ccc(Oc3ccccn3)cc2)CC1 (centres unmarked) [Compound 437]	100	100
OC1(C(c2ccc(OC(F)(F)F)cc2)c2cccc(Cl)c2Cl)CCN(Cc2ccc(Oc3ccccn3)cc2)CC1 (centres unmarked) [Compound 438]	100	100
OC1(C(c2ccc(OC(F)(F)F)cc2)c2cccc(Cl)c2)CCN(Cc2ccc(Oc3ccccn3)cc2)CC1 (centres unmarked) [Compound 439]	100	100
CCON=Cc1ccc(C(c2ccc(OC(F)(F)F)cc2)C2(O)CCN(Cc3ccc(Oc4ccccn4)cc3)CC2)cc1 (centres unmarked) [Compound 440]	100	100
OC1(C(c2ccc(OC(F)(F)F)cc2)c2ccc(Cl)c(Cl)c2)CCN(Cc2ccc(Oc3ccccn3)cc2)CC1 (centres unmarked) [Compound 441]	100	100
OC1(C(c2ccc(OC(F)(F)F)cc2)c2cc(Cl)cc(Cl)c2)CCN(Cc2ccc(Oc3ccccn3)cc2)CC1 (centres unmarked) [Compound 442]	100	100
OC1(C(c2ccc(OC(F)(F)F)cc2)c2cc(Cl)ccc2Cl)CCN(Cc2ccc(Oc3ccccn3)cc2)CC1 (centres unmarked) [Compound 443]	100	100
CCON=Cc1ccc(CN2CCC(O)(C(c3ccc(OC(F)(F)F)cc3)c3ccc(Cl)cc3Cl)CC2)cc1 (centres unmarked) [Compound 444]	100	100
OC1(C(c2ccc(OC(F)(F)F)cc2)c2ccc(Cl)cc2F)CCN(Cc2ccc(Oc3ccccn3)cc2)CC1 (centres unmarked) [Compound 445]	100	100
OC1(C(c2ccc3c(c2)OC(F)(F)O3)c2ccc3c(c2)OC(F)(F)O3)CCN(Cc2ccc(Oc3ccccn3)cc2)CC1 [Compound 446]	100	100
